Measured values taken from patent US20230329993A1, “PERSONAL CLEANSING COMPOSITION FREE OF ALKYL SULFATE OR ALKYL ETHER SULFATE TYPE OF SURFACTANTS” (The Procter & Gamble Company, priority 2022, published 2023).

Assay: Cone/Plate Viscosity Measurement
Assay type: physicochemical
Settings: composition such as C. Ex. 1; thickener level not stated
Method: The viscosity of the personal cleansing composition is measured by a Cone/Plate Brookfield DV12T, by Brookfield Engineering Laboratories, Stoughton, MA. The cone used (Spindle CPA-41z) has a diameter of […] and 3° angle. The viscosity is determined using a steady state flow experiment at constant shear rate of 2 s^−1 and at temperature of 26.5° C. The sample size is 2.5 mL.

Substance: cocamide MEA
- Effect of a thickener on enhancing the viscosity of a personal cleansing composition: good response
